Entries after “also recorded” stand apart in the source; their conditions may differ.
Legend:
[1] = tested on: bleomycin hydrolase; test: Screening for bleomycin hydrolase production promoting effects (RT-PCR, cultured human keratinocytes); type: cell-based; conditions: for expression of bleomycin hydrolase in comparison with the control: 50 μg/ml, human keratinocytes, 24 hours, control 0.1% 1,3-butylene glycol, FIG. 24; for production of bleomycin hydrolase, concentration dependence: general statement in description
Procedure: Human keratinocytes derived from normal foreskin (Cascade Biologics Inc., Portland, Md.) were cultured for 24 hours at […] in the presence of each of the herbal medicine extracts or pharmaceutical agents ([…] to 50 μg/ml) shown in FIG. 24 in keratinocyte growth medium consisting of MCDB medium supplemented with epidermal growth factor (0.1 ng/ml), insulin (10 μg/ml), hydrocortisone (0.5 μg/ml), bovine pituitary extract (0.4%), gentamycin (50 μg/ml) and amphotericin B (50 ng/ml). 0.1% 1,3-butylene glycol was used as a control.
Total RNA (500 ng) isolated from the human keratinocytes cultured in the manner described above was reverse-transcribed using random hexamers and Superscript II RNase H-transcriptase (Gibco-BRL Corp., Gaithersburg, Md.), followed by subjecting to PCR amplification using Taq DNA polymerase (Takara Corp., Kyoto, Japan) and the following primers. 40 amplification cycles were carried out consisting of 30 seconds at 94° C., 1 minute at 60° C. and 1 minute at 72° C.
The primers used in PCR are indicated below.

[2] = tested on: BH gene; test: Cytokine-mediated regulation of BH gene expression, real-time RT-PCR (Experiment 6, FIG. 20A); type: cell-based, human; conditions: proliferating keratinocytes, 24 hours of incubation
Procedure: (§1) Normal human epidermal keratinocytes derived from neonatal epidermis (Kurabo Industries, Ltd., Osaka, Japan) were cultured in EpiLife medium (Cascade Biologics, Inc., Portland, Oreg.) containing low-concentration (0.03 mM) calcium and HKGS Growth Supplement (Cascade Biologics, Inc.). All cells were incubated at 37° C. in the presence of 5% CO2 and were used within 4 passages of subculturing. Cells were collected at 70% confluence, 100% confluence, 2 days after reaching confluence, and 2 days after reaching confluence in 2 mM calcium.
(§2) Transcription levels of BH and related factors were analyzed by quantitative real-time RT-PCR. Total RNA was extracted from cultured cells using Isogen (Nippon Gene Co., Ltd., Tokyo, Japan) in accordance with the instructions provided by the manufacturer. Reverse transcription of cDNA was carried out using SuperScript™ II (Invitrogen Corp., Carlsbad, Calif.). Real-time RT-PCR was carried out with the Light Cycler Raid Cycler System using the Light Cycler 480 SYBR Green I Master Mix (Roche Diagnostics GmbH) in accordance with the instructions provided by the manufacturer. Glyceraldehyde 3-phosphate dehydrogenase (GAPDH) was used as a housekeeping gene. Specificity of the amplified fragments was confirmed by quantitative analysis of melting curves by Light Cycler analytical software. The amounts of mRNA were standardized with respect to GAPDH mRNA, and finally indicated as a ratio to the mRNA of an untreated control.
Since BH is an NMF-producing enzyme, it has the possibility of being involved in the pathophysiology of AD. Accordingly, an investigation was conducted of the effects of Th1, Th2 and Th17 cytokines on BH gene expression. […] Similar results were obtained with differentiated keratinocytes (data not shown). In order to clarify the role of IFN-γ in the regulation of BH gene expression, a promoter assay was carried out to identify cytokine response elements. […] IFN-γ no longer suppressed promoter activity after this sequence was deleted (FIG. 20B). […]

[3] = tested on: BH promoter; test: BH promoter luciferase assay in transfected cultured keratinocytes (FIG. 20B); type: cell-based, human; conditions: keratinocytes transfected with pGL3-BH-616 containing IRF-1/2 binding sites, 24 hours
Procedure: Keratinocytes were cultured in a 12-well tissue culture plate at a density of 5×10^4 cells/well followed by transfection with 1 μg aliquots of each construct using FuGene HD Transfection Reagent (Roche Diagnostics AG, Basel, Switzerland). In order to correct for transfection efficiency, all cells were simultaneously transfected with pGL4.74 [hRluc-TK] vector (Promega Co.) containing sea pansy (Renilla) luciferase gene under the control of HSV-TK promoter. Unless specifically indicated otherwise, the cells were collected 24 hours after transfection and lysed using […] of Passive Lysis Buffer (Promega Co.) per well. Luciferase activity was analyzed using the Dual Luciferase Reporter Assay System (Promega Co.) and Auto Lumat Plus Luminoeter (Berthold Technologies GmbH, Bad Wilbad, Germany). Firefly luciferase activity was standardized for sea pansy luciferase activity. Three transfections were independently carried out for each construct and results were expressed as the mean value thereof.
Since BH is an NMF-producing enzyme, it has the possibility of being involved in the pathophysiology of AD. Accordingly, an investigation was conducted of the effects of Th1, Th2 and Th17 cytokines on BH gene expression. […] Similar results were obtained with differentiated keratinocytes (data not shown). […]

[4] = tested on: IRF-1; test: Effect of cytokines on IRF-1 mRNA expression in cultured keratinocytes (FIG. 22); type: cell-based, human
Procedure: as §2
(§3) An investigation was conducted of the cytokine-dependent regulation of these transcription factors.

[5] = tested on: bleomycin hydrolase; test: Effect of cytokines on bleomycin hydrolase mRNA expression, quantitative PCR (Experiment 5, FIG. 14); type: cell-based, human; conditions: keratinocytes in the proliferation stage, 24 hours, IL-4 and TNFα 0.1-10 ng/ml, IFNγ 1.0-100 ng/ml
Procedure: as §1
The expression level of bleomycin hydrolase in keratinocytes was measured by quantitative PCR according to the following method using Light Cycler 480 (Roche Diagnostics GmbH, Mannheim, Germany). Light Cycler FastStart DNA Master CYBR Green I was used for the reagent. 0.6 μl aliquots of each of the following bleomycin hydrolase primers and 6.8 μl of water were added to 10 μl of SYBR Green I Master Mix followed by bringing to a total volume of 20 μl and carrying out PCR for 45 cycles consisting of 15 seconds at 95° C., 20 seconds at 55° C. and 20 seconds at 72° C. The results obtained were corrected by comparing with the results for a housekeeping gene, G3PDH.
IL-4 (final concentration: 0.1, 1.0 or 10 ng/ml), TNFα (final concentration: 0.1, 1.0 or 10 ng/ml) and IFNγ (final concentration: 1.0, 10 or 100 ng/ml) were respectively added to cultured keratinocytes in the proliferation stage, and after incubating for 24 hours, RNA was collected using Isogen. Expression of bleomycin hydrolase mRNA was measured by quantitative PCR. Based on the results shown in FIG. 14, a type of cytokine, interleukin-4 (IL-4) can be understood to down-regulate expression of bleomycin hydrolase.

[6] = tested on: IRF-2; test: Effect of cytokines on IRF-2 mRNA expression in cultured keratinocytes (FIG. 22); type: cell-based, human
Procedure: as §2, §3

[7] = tested on: Sp-1; test: Effect of cytokines on Sp-1 expression in cultured keratinocytes (FIG. 22); type: cell-based, human; conditions: most effective at IL-4 10 ng/ml
Procedure: as §2, §3

[8] = tested on: MZF-1; test: Effect of cytokines on MZF-1 expression in cultured keratinocytes (FIG. 22); type: cell-based, human; conditions: most effective at IL-4 10 ng/ml
Procedure: as §2, §3

[9] = only at IL-4 100 ng/ml, FIG. 22B

Row | Molecule | expression of bleomycin hydrolase in comparison with the control [1] | production of bleomycin hydrolase, concentration dependence [1] | BH mRNA expression [2] | expression of bleomycin hydrolase mRNA [5] | also measured
1 | O=C(O)CCCNS(=O)(=O)c1ccccc1 [benzenesulfonyl GABA, benzenesulfonyl γ-aminobutyric acid] | significantly increase | concentration-dependently promotes production |  |  | 
2 | OC[C@@H](O)[C@@H](O)CO [erythritol] | significantly increase | concentration-dependently promotes production |  |  | 
3 | IFN-γ: Th1 cytokine, human IFN-γ purchased from Peprotech EC |  |  | dose-dependent down-regulation; also recorded: remarkably suppressed; also recorded: significantly decreases | significantly increases | BH promoter activity (luciferase) [3]: down-regulated; IRF-1 mRNA expression ([4]; IFN-γ treatment, FIG. 22A): potent dose-dependent up-regulation; IRF-2 expression ([6]; IFN-γ treatment, FIG. 22A): up-regulated
4 | IL-4: Th2 cytokine, human IL-4 purchased from Peprotech EC |  |  | did not demonstrate any direct action whatsoever | down-regulates | expression of Sp-1 [7]: down-regulated most effectively; also recorded: down-regulated; expression of MZF-1 [8]: down-regulated most effectively; also recorded: down-regulated; expression of IRF-1 [4, 9]: significantly amplified; expression of IRF-2 [6, 9]: significantly amplified
5 | IL-13: Th2 cytokine, human IL-13 manufactured by R&D Systems Inc. |  |  | did not demonstrate any direct action whatsoever |  | 
6 | TNFα |  |  |  | significantly increases | 

— patent publication US20140010901A1, “BLEOMYCIN HYDROLASE PRODUCTION PROMOTOR” (Shiseido Company, Ltd., priority 2011, published 2014)
